Read-outs that look alike come from different tables or passages of the source.
Assays:
[1] = tested on: MOLM-14 (MLL-AF9) cells; experiment: Cell proliferation (alamarBlue) MOLM-14; assay type: cell-based; details: Homo sapiens
Protocol: (§1) Cells were seeded in the optimal growth medium at 4000–5000 cells/well in a 96 MTP and cultured 18–24 h before inhibitor treatment.

[2] = tested on: OCI-AML-5 (MLL-WT) cells; experiment: Cell proliferation (alamarBlue) OCI-AML-5; assay type: cell-based; details: Homo sapiens
Protocol: as §1

[3] = tested on: OCI-AML-2 (MLL-AF9) cells; experiment: Cell proliferation (alamarBlue) OCI-AML-2; assay type: cell-based; details: Homo sapiens
Protocol: as §1

[4] = tested on: Jurkat (MLL-WT) cells; experiment: Cell proliferation (alamarBlue) Jurkat; assay type: cell-based; details: Homo sapiens
Protocol: as §1

[5] = tested on: SEM (MLL-AF4) cells; experiment: Cell proliferation (alamarBlue) SEM; assay type: cell-based
Protocol: as §1

[6] = tested on: OCI-AML-3 (MLL-WT) cells; experiment: Cell proliferation (alamarBlue) OCI-AML-3; assay type: cell-based; details: Homo sapiens
Protocol: as §1

[7] = tested on: EOL-1 (MLL-TD) cells; experiment: Cell proliferation (alamarBlue) EOL-1; assay type: cell-based; details: Homo sapiens
Protocol: as §1

[8] = tested on: NOMO-1 (MLL-AF9) cells; experiment: Cell proliferation (alamarBlue) NOMO-1; assay type: cell-based; details: Homo sapiens
Protocol: as §1

[9] = tested on: MV4-11 (MLL-AF4) cells; experiment: Cell proliferation (alamarBlue) MV4-11; assay type: cell-based; details: Homo sapiens
Protocol: as §1

[10] = tested on: RS4;11 (MLL-AF4) cells; experiment: Cell proliferation (alamarBlue) RS4;11; assay type: cell-based; details: Homo sapiens, RS4-11, read-out: IC50 proliferation, RS4;11 (MLL-AF4)
Protocol: as §1

[11] = tested on: HL-60 cells; experiment: CD11b protein expression by flow cytometry, HL-60; assay type: cell-based; details: non-fused HL-60 cell line, 4 and 7 days of treatment
Procedure, shortened: (§2)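 Cells seeded 24 h before inhibitor treatment lasting 4 or 7 days. Then stained with CD11b-APC plus DAPI, or AnnexinV-FITC plus PI, and analysed by flow cytometry.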

[12] = tested on: MV4-11, MOLM-13 and HL-60 cells; experiment: Cell cycle analysis (PI, flow cytometry); assay type: cell-based; details: 4 days of treatment (Figure S2)
Protocol: Cells were washed with PBS and fixed overnight at − 20 °C with 70% ethanol. Fixed cells were stained with PI solution (Sigma-Aldrich St. Louis, MO, USA) solution containing RNase A (Qiagen, Hilden, Germany). Fluorescence was measured with FACS Canto II (BD Biosciences, Heidelberg, Germany) flow cytometer and data was analyzed with FACSDiva software.

[13] = tested on: HL-60 (MLL-WT) cells; experiment: Cell proliferation (alamarBlue) HL-60; assay type: cell-based; details: Homo sapiens, read-out: IC50 proliferation
Protocol: as §1

[14] = tested on: DHODH; parameters: method as in PMID 2743343; details: read-out: On target Potency IC50; cited from earlier work
[15] = tested on: MOLM-13 (MLL-AF9) cells; experiment: Cell proliferation (alamarBlue) MOLM-13; assay type: cell-based; details: Homo sapiens
Protocol: as §1

[16] = tested on: MV4-11, MOLM-13 and HL-60 cells; experiment: Cell proliferation, all three tested AML cell lines; assay type: cell-based; details: 96 h, read-out: anti-proliferation IC50s
Protocol: Cells were seeded in the optimal growth medium at 4000–5000 cells/well in a 96 MTP and cultured 18–24 h before inhibitor treatment. Upon treatment with the indicated inhibitor, cells were cultured for 24 h, 96 h, and 168 h and effects on proliferation were determined using alamarBlue Cell Viability Reagent (Thermo Fisher Scientific, Waltham, MA, USA).

[17] = tested on: ML-2 (MLL-AF6) cells; experiment: Cell proliferation (alamarBlue) ML-2; assay type: cell-based
Protocol: as §1

[18] = tested on: KOPN-8 (MLL-ENL) cells; experiment: Cell proliferation (alamarBlue) KOPN-8; assay type: cell-based; details: Homo sapiens
Protocol: as §1

[19] = tested on: MLL-fused cell lines (MV4-11, MOLM-13); experiment: CD11b protein expression by flow cytometry, MLL-fused lines; assay type: cell-based; details: 4 and 7 days of treatment
Procedure, shortened: as §2

Cc1c(-c2ccc(-c3ccccc3F)cc2)nc2ccc(F)cc2c1C(=O)O [Brequinar]
IC50 ([1]; MOLM-14, read-out: IC50 proliferation, MOLM-14 (MLL-AF9), D1): > 10000 nM | IC50 ([1]; MOLM-14, read-out: IC50 proliferation, MOLM-14 (MLL-AF9), D4): 320 nM | IC50 ([1]; MOLM-14, read-out: IC50 proliferation, MOLM-14 (MLL-AF9), D7): 180 nM | IC50 ([2]; OCI-AML-5, read-out: IC50 proliferation, OCI-AML-5 (MLL-WT), D1): > 10000 nM | IC50 ([2]; OCI-AML-5, read-out: IC50 proliferation, OCI-AML-5 (MLL-WT), D4): > 10000 nM | IC50 ([2]; OCI-AML-5, read-out: IC50 proliferation, OCI-AML-5 (MLL-WT), D7): > 10000 nM | IC50 ([3]; OCI-AML2, read-out: IC50 proliferation, OCI-AML-2 (MLL-AF9), D1): > 10000 nM | IC50 ([3]; OCI-AML2, read-out: IC50 proliferation, OCI-AML-2 (MLL-AF9), D4): > 10000 nM | IC50 ([3]; OCI-AML2, read-out: IC50 proliferation, OCI-AML-2 (MLL-AF9), D7): > 10000 nM | IC50 ([4]; read-out: IC50 proliferation, Jurkat (MLL-WT), D1): > 10000 nM | IC50 ([4]; read-out: IC50 proliferation, Jurkat (MLL-WT), D4): 30 nM | IC50 ([4]; read-out: IC50 proliferation, Jurkat (MLL-WT), D7): 50 nM | IC50 ([5]; read-out: IC50 proliferation, SEM (MLL-AF4), D1): > 10000 nM | IC50 ([5]; read-out: IC50 proliferation, SEM (MLL-AF4), D4): 190 nM | IC50 ([5]; read-out: IC50 proliferation, SEM (MLL-AF4), D7): 250 nM | IC50 ([6]; OCI-AML-3, read-out: IC50 proliferation, OCI-AML-3 (MLL-WT), D1): > 10000 nM | IC50 ([6]; OCI-AML-3, read-out: IC50 proliferation, OCI-AML-3 (MLL-WT), D4): 200 nM | IC50 ([6]; OCI-AML-3, read-out: IC50 proliferation, OCI-AML-3 (MLL-WT), D7): 240 nM | IC50 ([7]; EOL1, read-out: IC50 proliferation, EOL-1 (MLL-TD), D1): > 10000 nM | IC50 ([7]; EOL1, read-out: IC50 proliferation, EOL-1 (MLL-TD), D4): 380 nM | IC50 ([7]; EOL1, read-out: IC50 proliferation, EOL-1 (MLL-TD), D7): 110 nM | IC50 ([8]; NOMO-1, read-out: IC50 proliferation, NOMO-1 (MLL-AF9), D1): > 10000 nM | IC50 ([8]; NOMO-1, read-out: IC50 proliferation, NOMO-1 (MLL-AF9), D4): 270 nM | IC50 ([8]; NOMO-1, read-out: IC50 proliferation, NOMO-1 (MLL-AF9), D7): 130 nM | IC50 ([9]; MV4-11, read-out: IC50 proliferation, MV4-11 (MLL-AF4), D1): > 10000 nM | IC50 ([9]; MV4-11, read-out: IC50 proliferation, MV4-11 (MLL-AF4), D4): 100 nM | IC50 ([9]; MV4-11, read-out: IC50 proliferation, MV4-11 (MLL-AF4), D7): 220 nM | IC50 ([10]; D1): > 10000 nM | IC50 ([10]; D4): 1100 nM | IC50 ([10]; D7): > 10000 nM | CD11b level [11]: treatment did | cell cycle effect [12]: slight S-phase arrest at lower concentrations | IC50 ([13]; HL-60, 24 h): > 10000 nM | IC50 ([13]; HL-60, 96 h): 800 nM | IC50 ([13]; HL-60, 168 h): 270 nM | IC50 [14]: […] | IC50 ([15]; MOLM-13, read-out: IC50 proliferation, MOLM-13 (MLL-AF9), D1): > 10000 nM | IC50 ([15]; MOLM-13, read-out: IC50 proliferation, MOLM-13 (MLL-AF9), D4): 110 nM | IC50 ([15]; MOLM-13, read-out: IC50 proliferation, MOLM-13 (MLL-AF9), D7): 220 nM | IC50 [16]: 30 to 140 nM | IC50 ([17]; read-out: IC50 proliferation, ML-2 (MLL-AF6), D1): > 10000 nM | IC50 ([17]; read-out: IC50 proliferation, ML-2 (MLL-AF6), D4): 500 nM | IC50 ([17]; read-out: IC50 proliferation, ML-2 (MLL-AF6), D7): 310 nM | IC50 ([18]; KOPN-8, read-out: IC50 proliferation, KOPN-8 (MLL-ENL), D1): > 10000 nM | IC50 ([18]; KOPN-8, read-out: IC50 proliferation, KOPN-8 (MLL-ENL), D4): 300 nM | IC50 ([18]; KOPN-8, read-out: IC50 proliferation, KOPN-8 (MLL-ENL), D7): 360 nM | CD11b protein level [19]: increased CD11b protein level in a dose and time-dependent manner

— publication PMC6599250, “Functional diversity of inhibitors tackling the differentiation blockage of MLL-rearranged leukemia” (Journal of Hematology & Oncology, 2019)
